In ChEMBL document CHEMBL5321200, “Discovery of the GSH responsive "Y-PROTACs" targeting ALK and CDK4/6 as a potential treatment for cancer” (Eur J Med Chem, 2023):
Active and inactive are the calls of the source. The rule behind the calls is not given here.

Columns and labels:
[1] = target: Cyclin-dependent kinase 4 (Homo sapiens) (UniProt P11802); assay: Inhibition of CDK4 (unknown origin) at 0.05 uM by LANCE Ultra TR-FRET assay relative to control
NCI-H2228 [2] = assay: Antiproliferative activity against human NCI-H2228 cells assessed as inhibition of cell growth incubated for 3 to 5 days by MTT assay; assay type: functional, cell-based
[3] = Cytotoxicity against human L02 cells assessed as inhibition of cell growth incubated for 3 to 5 days by MTT assay; assay type: toxicity, cell-based
NCI-H3122 [4] = assay: Antiproliferative activity against human NCI-H3122 cells assessed as inhibition of cell growth incubated for 3 to 5 days by MTT assay; assay type: functional, cell-based
NCI-H2228 [5] = assay: Antiproliferative activity against human NCI-H2228 cells assessed as inhibition of cell growth pretreated with GSH followed by compound addition and incubated for 3 to 5 days by MTT assay; assay type: functional, cell-based
[6] = target: Protein cereblon/Cyclin-dependent kinase 6 (Homo sapiens) (UniProt Q00534+Q96SW2); assay: PROTAC activity at CRBN/CDK6 in human NCI-H3122 cells assessed as reduction in CDK6 protein level at 1 to 10 uM incubated for 24 hrs by Western blot analysis; assay type: cell-based; details: dose 1-10 µM
[7] = target: ALK tyrosine kinase receptor (Homo sapiens) (UniProt Q9UM73); assay: Inhibition of ALK (unknown origin) at 1 uM by LANCE Ultra TR-FRET assay relative to control
NCI-H1299 [8] = assay: Antiproliferative activity against human NCI-H1299 cells assessed as inhibition of cell growth pretreated with GSH followed by compound addition and incubated for 3 to 5 days by MTT assay; assay type: functional, cell-based
[9] = target: Cyclin-dependent kinase 6 (Homo sapiens) (UniProt Q00534); assay: Inhibition of CDK6 (unknown origin) at 0.05 uM by LANCE Ultra TR-FRET assay relative to control
[10] = target: ALK tyrosine kinase receptor (Homo sapiens) (UniProt Q9UM73); assay: Inhibition of ALK (unknown origin) at 0.05 uM by LANCE Ultra TR-FRET assay relative to control
[11] = Cytotoxicity against human L02 cells assessed as inhibition of cell growth pretreated with GSH followed by compound addition and incubated for 3 to 5 days by MTT assay; assay type: toxicity, cell-based
[12] = target: Cyclin-dependent kinase 6 (Homo sapiens) (UniProt Q00534); assay: Inhibition of CDK6 (unknown origin) at 1 uM by LANCE Ultra TR-FRET assay relative to control
[13] = target: Cyclin-dependent kinase 4 (Homo sapiens) (UniProt P11802); assay: Inhibition of CDK4 (unknown origin) at 1 uM by LANCE Ultra TR-FRET assay relative to control
NCI-H1299 [14] = assay: Antiproliferative activity against human NCI-H1299 cells assessed as inhibition of cell growth incubated for 3 to 5 days by MTT assay; assay type: functional, cell-based
NCI-H3122 [15] = assay: Antiproliferative activity against human NCI-H3122 cells assessed as inhibition of cell growth pretreated with GSH followed by compound addition and incubated for 3 to 5 days by MTT assay; assay type: functional, cell-based
[16] = target: Protein cereblon/ALK tyrosine kinase receptor/Echinoderm microtubule-associated protein-like 4 (Homo sapiens) (UniProt Q9UM73+Q9HC35+Q96SW2); assay: PROTAC activity at CRBN/EML4-ALK in human NCI-H3122 cells assessed as induction of EML4-ALK degradation at 5 uM incubated for 24 hrs by Western blot analysis; assay type: cell-based
[17] = target: Protein cereblon/Cyclin-dependent kinase 4 (Homo sapiens, UniProt P11802+Q96SW2); assay: PROTAC activity at CRBN/CDK4 in human NCI-H3122 cells assessed as induction of EML4-ALK degradation at 5 uM incubated for 24 hrs by Western blot analysis; assay type: cell-based
Sequence of Protein cereblon/Cyclin-dependent kinase 4 (P11802 2-303 limits assumed): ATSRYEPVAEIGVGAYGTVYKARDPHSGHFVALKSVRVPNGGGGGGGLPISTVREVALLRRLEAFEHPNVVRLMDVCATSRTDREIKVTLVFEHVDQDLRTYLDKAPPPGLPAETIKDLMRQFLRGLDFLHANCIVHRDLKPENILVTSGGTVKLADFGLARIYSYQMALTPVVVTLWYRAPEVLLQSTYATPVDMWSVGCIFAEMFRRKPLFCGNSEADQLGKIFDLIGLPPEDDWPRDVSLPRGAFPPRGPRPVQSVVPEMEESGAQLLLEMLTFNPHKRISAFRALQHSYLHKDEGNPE
Sequence of Protein cereblon/Cyclin-dependent kinase 4 (Q96SW2 whole entry partner): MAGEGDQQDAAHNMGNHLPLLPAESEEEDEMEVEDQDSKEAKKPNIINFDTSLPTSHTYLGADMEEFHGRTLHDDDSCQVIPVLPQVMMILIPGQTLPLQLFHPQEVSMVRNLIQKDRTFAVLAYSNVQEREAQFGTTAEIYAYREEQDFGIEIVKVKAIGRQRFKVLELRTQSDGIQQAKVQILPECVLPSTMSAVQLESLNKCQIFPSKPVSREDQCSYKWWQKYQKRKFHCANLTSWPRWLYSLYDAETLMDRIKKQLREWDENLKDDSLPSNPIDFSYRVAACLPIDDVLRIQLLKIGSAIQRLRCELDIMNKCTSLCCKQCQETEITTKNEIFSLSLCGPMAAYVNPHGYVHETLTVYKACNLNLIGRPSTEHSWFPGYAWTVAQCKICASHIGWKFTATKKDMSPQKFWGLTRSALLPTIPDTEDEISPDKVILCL

Sequence of Cyclin-dependent kinase 6 (Homo sapiens) (Q00534 whole entry): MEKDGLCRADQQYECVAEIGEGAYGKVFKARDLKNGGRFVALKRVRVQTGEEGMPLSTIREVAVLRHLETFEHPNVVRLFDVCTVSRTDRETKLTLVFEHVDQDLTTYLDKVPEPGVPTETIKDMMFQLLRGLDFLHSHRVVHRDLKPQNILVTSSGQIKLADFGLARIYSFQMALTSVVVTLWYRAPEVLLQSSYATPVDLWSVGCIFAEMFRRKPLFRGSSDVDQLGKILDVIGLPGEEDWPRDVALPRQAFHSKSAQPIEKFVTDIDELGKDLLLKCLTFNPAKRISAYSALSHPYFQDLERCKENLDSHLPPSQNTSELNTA
Sequence of Cyclin-dependent kinase 4 (Homo sapiens) (P11802 whole entry): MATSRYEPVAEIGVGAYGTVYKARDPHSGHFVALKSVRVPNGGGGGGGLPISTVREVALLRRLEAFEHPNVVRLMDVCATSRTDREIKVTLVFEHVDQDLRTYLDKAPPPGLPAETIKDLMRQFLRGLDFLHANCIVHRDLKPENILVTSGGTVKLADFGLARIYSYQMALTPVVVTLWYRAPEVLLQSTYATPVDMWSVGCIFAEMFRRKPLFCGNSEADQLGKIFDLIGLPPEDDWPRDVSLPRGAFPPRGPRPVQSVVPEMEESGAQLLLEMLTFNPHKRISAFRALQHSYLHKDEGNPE
Sequence of ALK tyrosine kinase receptor (Homo sapiens) (Q9UM73 19-1620 limits assumed): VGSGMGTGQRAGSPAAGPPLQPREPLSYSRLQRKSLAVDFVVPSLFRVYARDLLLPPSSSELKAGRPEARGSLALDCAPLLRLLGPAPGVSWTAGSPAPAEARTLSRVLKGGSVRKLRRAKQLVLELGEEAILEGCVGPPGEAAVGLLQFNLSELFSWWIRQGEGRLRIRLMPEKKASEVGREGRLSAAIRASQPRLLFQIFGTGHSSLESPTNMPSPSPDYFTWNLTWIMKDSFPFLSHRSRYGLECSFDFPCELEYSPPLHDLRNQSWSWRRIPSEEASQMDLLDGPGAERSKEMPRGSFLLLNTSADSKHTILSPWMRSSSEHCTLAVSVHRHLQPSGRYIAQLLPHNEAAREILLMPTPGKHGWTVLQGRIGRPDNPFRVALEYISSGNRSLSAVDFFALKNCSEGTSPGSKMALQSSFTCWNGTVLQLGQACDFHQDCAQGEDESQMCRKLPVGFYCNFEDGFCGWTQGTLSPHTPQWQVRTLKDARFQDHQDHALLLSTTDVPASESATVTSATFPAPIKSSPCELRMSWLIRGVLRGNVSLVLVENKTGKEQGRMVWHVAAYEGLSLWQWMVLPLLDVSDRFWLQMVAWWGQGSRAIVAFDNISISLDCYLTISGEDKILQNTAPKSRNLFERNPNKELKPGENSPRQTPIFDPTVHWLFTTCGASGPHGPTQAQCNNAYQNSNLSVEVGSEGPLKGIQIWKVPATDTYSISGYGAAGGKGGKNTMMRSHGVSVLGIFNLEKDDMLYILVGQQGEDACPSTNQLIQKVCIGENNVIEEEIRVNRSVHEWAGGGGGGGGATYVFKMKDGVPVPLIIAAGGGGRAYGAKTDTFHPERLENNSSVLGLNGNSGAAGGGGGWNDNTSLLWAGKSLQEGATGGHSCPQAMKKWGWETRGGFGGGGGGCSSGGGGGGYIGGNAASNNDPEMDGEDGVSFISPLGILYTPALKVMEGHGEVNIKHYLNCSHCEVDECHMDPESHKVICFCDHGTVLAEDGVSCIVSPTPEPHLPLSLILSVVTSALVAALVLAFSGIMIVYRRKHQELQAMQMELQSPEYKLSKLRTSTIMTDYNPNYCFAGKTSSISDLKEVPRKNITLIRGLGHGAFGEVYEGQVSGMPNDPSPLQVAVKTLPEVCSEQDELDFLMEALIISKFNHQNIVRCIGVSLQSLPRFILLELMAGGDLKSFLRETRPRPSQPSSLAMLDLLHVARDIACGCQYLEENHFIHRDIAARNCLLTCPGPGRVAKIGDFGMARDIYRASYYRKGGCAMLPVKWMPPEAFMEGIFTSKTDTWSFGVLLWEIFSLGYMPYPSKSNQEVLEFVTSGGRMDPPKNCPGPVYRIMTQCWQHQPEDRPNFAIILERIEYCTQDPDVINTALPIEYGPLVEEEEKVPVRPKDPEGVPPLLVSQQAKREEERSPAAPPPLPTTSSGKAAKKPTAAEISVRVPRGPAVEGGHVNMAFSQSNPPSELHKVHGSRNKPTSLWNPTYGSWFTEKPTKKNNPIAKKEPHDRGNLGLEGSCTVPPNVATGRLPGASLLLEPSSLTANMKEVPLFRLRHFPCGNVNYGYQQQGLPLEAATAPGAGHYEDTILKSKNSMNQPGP
Sequence of Protein cereblon/Cyclin-dependent kinase 6 (Homo sapiens) (Q00534 whole entry, looked up): as the sequence (Q00534 whole entry) above
Sequence of Protein cereblon/Cyclin-dependent kinase 6 (Homo sapiens) (Q96SW2 whole entry, looked up): as the sequence (Q96SW2 whole entry partner) above
Sequence of Protein cereblon/ALK tyrosine kinase receptor/Echinoderm microtubule-associated protein-like 4 (Homo sapiens) (Q96SW2 whole entry partner): as above
Sequence of Protein cereblon/ALK tyrosine kinase receptor/Echinoderm microtubule-associated protein-like 4 (Homo sapiens) (Q9HC35 whole entry partner): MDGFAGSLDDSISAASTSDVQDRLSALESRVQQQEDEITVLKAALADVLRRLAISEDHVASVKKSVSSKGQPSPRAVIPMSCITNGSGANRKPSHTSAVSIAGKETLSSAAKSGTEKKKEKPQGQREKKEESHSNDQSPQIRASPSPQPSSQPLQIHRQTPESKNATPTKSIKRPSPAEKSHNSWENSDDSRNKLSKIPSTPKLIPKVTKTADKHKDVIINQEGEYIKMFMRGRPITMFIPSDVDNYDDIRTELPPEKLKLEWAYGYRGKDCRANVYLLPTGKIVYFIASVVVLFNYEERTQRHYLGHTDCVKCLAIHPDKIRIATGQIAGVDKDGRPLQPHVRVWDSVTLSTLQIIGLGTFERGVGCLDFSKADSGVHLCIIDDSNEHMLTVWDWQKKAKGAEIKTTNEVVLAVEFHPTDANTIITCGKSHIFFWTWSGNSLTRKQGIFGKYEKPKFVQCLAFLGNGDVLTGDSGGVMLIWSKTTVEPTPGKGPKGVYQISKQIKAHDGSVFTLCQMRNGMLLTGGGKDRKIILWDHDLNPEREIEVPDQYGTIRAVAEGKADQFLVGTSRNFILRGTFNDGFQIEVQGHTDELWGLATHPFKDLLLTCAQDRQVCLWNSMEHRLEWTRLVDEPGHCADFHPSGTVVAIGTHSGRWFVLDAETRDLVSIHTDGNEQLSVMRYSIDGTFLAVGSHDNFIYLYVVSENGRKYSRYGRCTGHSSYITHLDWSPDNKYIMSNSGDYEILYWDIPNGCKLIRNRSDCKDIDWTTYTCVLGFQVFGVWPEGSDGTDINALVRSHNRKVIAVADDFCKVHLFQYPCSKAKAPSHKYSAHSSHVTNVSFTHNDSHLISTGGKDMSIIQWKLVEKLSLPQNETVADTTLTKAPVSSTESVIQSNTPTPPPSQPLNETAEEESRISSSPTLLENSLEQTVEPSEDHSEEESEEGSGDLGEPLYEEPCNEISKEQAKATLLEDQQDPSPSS
Sequence of Protein cereblon/ALK tyrosine kinase receptor/Echinoderm microtubule-associated protein-like 4 (Homo sapiens) (Q9UM73 19-1620 limits assumed): as the sequence (Q9UM73 19-1620 limits assumed) above

| SMILES | inhibition [1] [%] | IC50 (NCI-H2228 [2]) [µM] | IC50 [3] [µM] | IC50 (NCI-H3122 [4]) [µM] | IC50 (NCI-H2228 [5]) [µM] | Activity [6] | inhibition [7] [%] | IC50 (NCI-H1299 [8]) [µM] | inhibition [9] [%] | inhibition [10] [%] | IC50 [11] [µM] | inhibition [12] [%] | inhibition [13] [%] | IC50 (NCI-H1299 [14]) [µM] | IC50 (NCI-H3122 [15]) [µM] | Activity [16] | Activity [17] |
| --- | --- | --- | --- | --- | --- | --- | --- | --- | --- | --- | --- | --- | --- | --- | --- | --- | --- |
| CC(=O)c1c(C)c2cnc(Nc3ccc(N4CCN(CC(=O)NCCSSCCN(CC(=O)Nc5cccc6c5C(=O)N(C5CCC(=O)NC5=O)C6=O)C(=O)CCCCC(=O)N5CCC(c6cc(OC(C)C)c(Nc7ncc(Cl)c(Nc8ccccc8S(=O)(=O)C(C)C)n7)cc6C)CC5)CC4)cn3)nc2n(C2CCCC2)c1=O (centres undefined) | 51.4 | 13 | 45.1 | 1.99 | 8.73 | inactive | 66.8 | 4.31 | 92.7 | 18.3 | 18.2 | 97.3 | 77.5 | 3.29 | 1.06 |  |  |
| CC(=O)c1c(C)c2cnc(Nc3ccc(N4CCN(CC(=O)NCCSSCCN(CC(=O)NCCNc5cccc6c5C(=O)N(C5CCC(=O)N(C)C5=O)C6=O)C(=O)CCCCCCC(=O)N5CCC(c6cc(OC(C)C)c(Nc7ncc(Cl)c(Nc8ccccc8S(=O)(=O)C(C)C)n7)cc6C)CC5)CC4)cn3)nc2n(C2CCCC2)c1=O (centres undefined) |  |  |  | 2.39 |  |  |  |  |  |  |  |  |  |  | 0.93 | inactive | inactive |
